The results in this text go back to patent publication US12718601B2, “Using machine learning and/or neural networks to validate stem cells and their derivatives (2-D cells and 3-D tissues) for use in cell therapy and tissue engineered products” (The United States of America, as represented by the …, priority 2018, dated 2026).

What all share (assay type): cell-based, human
Test [1] concerns iRPE. The experiment in a line: Single cell image features from DNN-S segmented QBAM images of drug-treated iRPE. Conditions: for CPI_IntegratedIntensityEdge.K (Intensity 10), Mean / ML_MinIntensity.Mean (Intensity 1), Mean: Healthy-2 iRPE, 3.0 μmol/L Aphidicolin or 30.0 μM HPI4. The procedure:
QBAM imaging and live cell segmentation allows for hundreds of cell image features to be measured and tracked non-invasively on individual cells throughout iRPE maturation. Thus, the trained DNN-S was used to segment QBAM images of living iRPE (Healthy-1 and Healthy-2 donors) treated with Aphidicolin, HPI-4, or nothing (control). Previously published cell image features and intensity metrics known to correlate to RPE maturation and health were then assessed for significance. […] Importantly, this technique allows for unprecedented hierarchical granularity to the data; enabling not just whole well “bulk” tissue measurements, but also as a function of field of view or at an individual cell level Clustering of treatments based off of two features known to be important to RPE maturation and health, cell area and mean cell intensity were performed. Cell minimum intensity, a new metric related to iRPE function identified using SML, is described further below.
Following differentiation, iRPE from donors Healthy-1 and Healthy-2 were placed on a 12-well 0.4 μm polycarbonate transwell plate (Corning, 3401) at a seeding density of 500,000 cells/ml in 0.5 ml. Only six of the 12 wells were used to minimize the time spent outside of the incubator while imaging. QBAM imaging and drug treatments started two or one weeks after seeding for Healthy-1 and Healthy-2 iRPE, respectively. For each culture plate, two of the six wells were treated with either 3.0 μmol/L Aphidicolin (Sigma Aldrich, A0781-10 MG), 30.0 μM HPI4 (Hedgehog Pathway Inhibitor 4, Sigma Aldrich, H4541-25 MG), or no additives to the RPEMM culture medium. RPEMM was changed three times a week and imaged on the same day every week immediately after medium change. To prevent the culture plate lid from fogging during imaging, culture medium in wells were replaced with room temperature RPEMM (with drugs if needed) immediately before imaging since room temperature medium minimized condensation. RPEMM without drug was added to a well without any cells in it to capture the bright reference image for QBAM imaging. For each well, a 4×3 grid of overlapping images were captured (10-15% image overlap) for image stitching using a Zeiss AxioImager M2 microscope with a 10× objective. For Healthy-2 and Healthy-1, a total of six plates were prepared, with six wells occupied in each plate, yielding 36 total wells imaged and analyzed. The iRPE from AMD samples were previously reported by Sharma et al (Sharma et al., 2018), and the iRPE from OCA donors were cultured as described above, but were only imaged after they had matured and were fixed with PFA. In total five well replicates of OCA8, six replicates from OCA9, four replicates of OCA26, eight replicates of OCA71, and four replicates of OCA103 were imaged. For AMD data 1 replicate of AMD1 Clone A, 5 replicates of AMD1 Clone B, 1 Replicate of AMD2 Clone A, 5 replicates of AMD2 Clone B, 1 replicate of AMD2 Clone C, 1 replicate of AMD3 Clone A, 5 replicates of AMD3 Clone B, and 1 replicate of AMD3 Clone C were imaged.
No preprocessing was performed on QBAM images before they were processed with the DNN-S. The structure of the DNN-S was the same as that used to segment the fluorescent images, except the input image had three channels instead of one. The three channels were three QBAM images captured of the same field of view, but each QBAM image was captured at a different wavelength (488 nm, 561 nm, and 633 nm).
In order to extract as many cell-level features as possible, multiple widely were leveraged used image libraries for feature extraction that have been integrated into WIPP. While the feature values for the same feature definitions might vary, they provide insights on the amount of variation introduced not only by image acquisition but also by image processing. […]

Test [2] deals with iRPE. The experiment in a line: QBAM imaging of drug-treated iRPE (image absorbance). To be noted: Healthy-1 and Healthy-2 iRPE, 8-week culture, weekly QBAM imaging. The source says:
iRPE from each healthy donor (Healthy-1, Healthy-2) were imaged to determine if QBAM imaging affected cell maturation and could measure a large range in variation of iRPE pigmentation. This was done using three culture conditions: (1) control iRPE (no treatment), (2) iRPE treated with a known inducer of RPE maturation (Aphidicolin), and (3) iRPE treated with a known inhibitor of RPE maturation (hedgehog pathway inhibitor-4, HPI4).
Following differentiation, iRPE from donors Healthy-1 and Healthy-2 were placed on a 12-well 0.4 μm polycarbonate transwell plate (Corning, 3401) at a seeding density of 500,000 cells/ml in 0.5 ml. Only six of the 12 wells were used to minimize the time spent outside of the incubator while imaging. QBAM imaging and drug treatments started two or one weeks after seeding for Healthy-1 and Healthy-2 iRPE, respectively. For each culture plate, two of the six wells were treated with either 3.0 μmol/L Aphidicolin (Sigma Aldrich, A0781-10 MG), 30.0 μM HPI4 (Hedgehog Pathway Inhibitor 4, Sigma Aldrich, H4541-25 MG), or no additives to the RPEMM culture medium. RPEMM was changed three times a week and imaged on the same day every week immediately after medium change. […] For Healthy-2 and Healthy-1, a total of six plates were prepared, with six wells occupied in each plate, yielding 36 total wells imaged and analyzed. […]

Test [3] concerns iRPE. Nature of the test: Electrophysiological measurements (TEP and TER) of iRPE monolayers. Conditions: treated iRPE relative to control. The procedure:
Electrical resistance measurements used for prediction of the iRPE monolayers were measured using an EVOM2 and EndOhm chamber (World Precision Instruments, EVOM2 and ENDOHM-12 respectively). Each line was measured for its resistance across 12 wells per treatment, per week. Intracellular transepithelial potential and resistance measurements in response to 1 mM potassium (Sigma Aldrich, P5405-1 KG) and 100 μM ATP (Sigma Aldrich, A9187-500 MG) were done identically to that of previous reports (Miyagishima et al., In Pursuit of Authenticity: Induced Pluripotent Stem Cell-Derived Retinal Pigment Epithelium for Clinical Applications, STEM CELLS Transl. Med. 5, 1562-1574 (2016)). Briefly, RPE monolayer cultures derived from iPSC lines were mounted on a modified “Ussing” chamber as described previously (Maminishkis et al., The P2Y2 Receptor Agonist INS37217 Stimulates RPE Fluid Transport In Vitro and Retinal Reattachment, Rat. Invest. Ophthalmol. Vis. Sci. 43, 3555-3566 (2002); Peterson et al., Extracellular ATP Activates Calcium Signaling, Ion, and Fluid Transport in Retinal Pigment Epithelium, J. Neurosci. 17, 2324-2337 (1997)). […] The signals from intracellular microelectrodes were referenced to the basal bath to measure the basolateral membrane potential (Vb) and the apical membrane potential (Va) was calculated by the equation: […]. […]

For test [4], the system named is iRPE. The experiment in a line: mRNA and protein expression of maturation markers in iRPE. Conditions: Aphidicolin treated iRPE compared with HPI4 treated iRPE. As to the method: Tissue preparation for immunohistochemistry was done by placing wells in 4% (mass/volume) paraformaldehyde (Electron Microscopy Science, 157-4-100) for 20 minutes. Immunohistochemistry blocking solution (IBS) consisted of 500 ml of 1× DPBS (Dulbecco's phosphate-buffered saline, Life Technologies, 14190250), 5% (mass/volume) bovine serum albumin (Sigma Aldrich, A3311), 0.5% (mass/volume) Triton X-100 (Sigma Aldrich, X100-100ML), and 0.5% (mass/volume) TWEEN20 (Sigma Aldrich, P2287-100ML). Fixed cells were washed with IBS three times and permeabilized for 2 hours with IBS at room temperature. Cells were then stained with the following primary antibody for 1 hour at room temperature: RPE65 (anti-RPE65 monoclonal antibody [1:300, Abcam, ab13826), Ezrin (monoclonal anti-ezrin antibody, 1:100, Sigma Aldrich, E8897), or GT335 (anti-polyglutamylation modification monoclonal antibody, 1:1000, Adipogen, AG-20B-0020). […] RNA was quantified using an ND-1000 spectrophotometer (Nanodrop Technologies) and the manufacturers protocol. cDNA synthesis was performed using the Script cDNA Synthesis Kit (Bio-Rad, 1708891) and the manufacturer provided protocols. […] An HPI4 well had to be excluded due to extremely low RNA extraction from the well and an insufficient quantity of cDNA being amplified to measured. […] Data was analyzed using R software (R Development Core Team, 2011).

With `C[C@@]1(CO)[C@H](O)CC[C@@]2(C)[C@H]1CC[C@H]1C[C@@H]3C[C@@]12CC[C@]3(O)CO` [Aphidicolin], the “CPI_IntegratedIntensityEdge.K (Intensity 10), Mean” value is given as 5.87 in the test with iRPE [1] (week 2); 6.07 in the test on iRPE [1] (week 3); 5.3 in the test on iRPE [1] (week 4); 5.59 with iRPE [1] (week 5); 4.76 in the test with iRPE [1] (week 6); 4.53 in the test on iRPE [1] (week 7). The “ML_MinIntensity.Mean (Intensity 1), Mean” value with iRPE [1] (week 2) is reported as 144.67; with iRPE [1] (week 3), 204.31; in the test with iRPE [1] (week 5), 183.77; with iRPE [1] (week 6), 185.15; in the test on iRPE [1] (week 7) it was 180.84. For the same molecule, the “image absorbance over time” value in the test with iRPE [2] is “increasing image absorbance”. The “baseline electrical response (TEP and TER) and its change to 1 mM potassium (K+) or 100 μM ATP” value with iRPE [3] was “significantly greater”. Further, in the test on iRPE [4], the “mRNA and protein expression of maturation markers” value is reported as “Higher”.
As to `N#CC(=C(O)c1ccc(Cl)cc1Cl)c1nc2ccccc2c(=O)[nH]1` [HPI4], in the test on iRPE [1] (Healthy-1 and Healthy-2 iRPE, across all time points, p<0.001), the “mean number of neighbors each iRPE cell had” value was “significantly lower”. In addition, the “CPI_IntegratedIntensityEdge.K (Intensity 10), Mean” value in the test on iRPE [1] (week 2) was determined as 5.11; in the test on iRPE [1] (week 3) it was 6.45; in the test with iRPE [1] (week 4) it was 6.45; in the test with iRPE [1] (week 5) it was 7.21; with iRPE [1] (week 6) it was 8.06; in the test on iRPE [1] (week 7), 8.06. Besides, the “ML_MinIntensity.Mean (Intensity 1), Mean” value in the test on iRPE [1] (week 2) is listed as 141.81; in the test with iRPE [1] (week 3), 179.97; in the test with iRPE [1] (week 4) it was 104.78; with iRPE [1] (week 5), 133.78; in the test on iRPE [1] (week 6), 126.02; in the test on iRPE [1] (week 7), 110.26. The “image absorbance over time” value in the test on iRPE [2] is on record as “decreasing trend in absorbance”. The “baseline electrical response (TEP and TER) and its change to 1 mM potassium (K+) or 100 μM ATP” value with iRPE [3] is “significantly lower”.
